Experimental data reported in ChEMBL document CHEMBL1201862, “PubChem BioAssay data set” (2004).
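Results reflect a 48-hour exposure of cells in 96-well plates to compound at five concentrations. GI50 marks 50% less growth.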 Calls of active or inactive are those of the source. Rule as the data show it: active = GI50 up to about 1.1 µM and inactive = higher.

Legend:
Experiment in all cases: DTP human tumour cell line panel, 48 h
A549 = tested on: A549
HCT-15 = tested on: HCT-15
SNB-19 = tested on: SNB-19
RXF 393 = tested on: RXF 393
ACHN = tested on: ACHN
SN12C = tested on: SN12C
SF-268 = tested on: SF-268
NCI/ADR-RES = tested on: NCI/ADR-RES
MCF7 = tested on: MCF7
CCRF-CEM = tested on: CCRF-CEM
SR = tested on: SR
Hs-578T = tested on: Hs-578T
U-251 = tested on: U-251
K562 = tested on: K562
MDA-MB-231 = tested on: MDA-MB-231
HOP-62 = tested on: HOP-62
MDA-MB-435 = tested on: MDA-MB-435
HT-29 = tested on: HT-29
RPMI-8226 = tested on: RPMI-8226
SF-539 = tested on: SF-539

SMILES | GI50 (A549) | GI50 (HCT-15) [µM] | GI50 (SNB-19) | GI50 (RXF 393) | GI50 (ACHN) | GI50 (SN12C) | GI50 (SF-268) | GI50 (NCI/ADR-RES) | GI50 (MCF7) | GI50 (CCRF-CEM) | GI50 (SR) | GI50 (Hs-578T) | GI50 (U-251) | GI50 (K562) | GI50 (MDA-MB-231) | GI50 (HOP-62) | GI50 (MDA-MB-435) | GI50 (HT-29) | GI50 (RPMI-8226) | GI50 (SF-539)
Cc1nc2cccc([N+](=O)[O-])c2n1CCCN(C)C | > 100 µM (inactive) | > 100 | > 100 µM (inactive) | > 100 µM (inactive) | > 100 µM (inactive) | > 100 µM (inactive) | > 100 µM (inactive) | > 100 µM (inactive) | > 100 µM (inactive) | > 100 µM (inactive) | > 100 µM (inactive) | > 100 µM (inactive) | > 100 µM (inactive) | > 100 µM (inactive) | > 100 µM (inactive) | > 100 µM (inactive) | > 100 µM (inactive) | > 100 µM (inactive) | > 100 µM (inactive) | –
O=C1CCC2c3ccccc3NCN12 (stereo unspecified) | > 100 µM (inactive) | > 100 | > 100 µM (inactive) | > 100 µM (inactive) | > 100 µM (inactive) | > 100 µM (inactive) | > 100 µM (inactive) | > 100 µM (inactive) | > 100 µM (inactive) | > 100 µM (inactive) | – | > 100 µM (inactive) | > 100 µM (inactive) | > 100 µM (inactive) | > 100 µM (inactive) | > 100 µM (inactive) | > 100 µM (inactive) | > 100 µM (inactive) | > 100 µM (inactive) | > 100 µM (inactive)
COc1ccc2c(c1)C(=O)CC(N)C2 (stereo unspecified) | > 100 µM (inactive) | > 100 | > 100 µM (inactive) | > 100 µM (inactive) | > 100 µM (inactive) | > 100 µM (inactive) | > 100 µM (inactive) | > 100 µM (inactive) | > 100 µM (inactive) | 64.9 µM (inactive) | 55.7 µM (inactive) | 42.2 µM (inactive) | > 100 µM (inactive) | > 100 µM (inactive) | > 100 µM (inactive) | > 100 µM (inactive) | > 100 µM (inactive) | > 100 µM (inactive) | > 100 µM (inactive) | –
CC(NNC(=O)CC(=O)N(C(=O)c1ccccc1)c1ccc(Cl)cc1)c1cc2ccccc2oc1=O (stereo unspecified) | > 10 µM (inactive) | > 10 | > 10 µM (inactive) | > 10 µM (inactive) | > 10 µM (inactive) | > 10 µM (inactive) | > 10 µM (inactive) | > 10 µM (inactive) | > 10 µM (inactive) | > 10 µM (inactive) | – | > 10 µM (inactive) | > 10 µM (inactive) | > 10 µM (inactive) | > 10 µM (inactive) | > 10 µM (inactive) | > 10 µM (inactive) | > 10 µM (inactive) | > 10 µM (inactive) | > 10 µM (inactive)
CC[C@]1(Cc2ccc(OC)c(OC)c2)C=[N+]([O-])O[C@H](OC2CCCC2(c2ccccc2)c2ccccc2)[C@@H]1OC(C)=O (stereo partly specified) | 3.54 µM (inactive) | 3.37 | 5.89 µM (inactive) | 1.52 µM (inactive) | 2.4 µM (inactive) | 4.12 µM (inactive) | 4.76 µM (inactive) | 2.59 µM (inactive) | 2.43 µM (inactive) | 4.1 µM (inactive) | 2.79 µM (inactive) | 13.1 µM (inactive) | 7.94 µM (inactive) | 2.98 µM (inactive) | 11 µM (inactive) | 12.4 µM (inactive) | 2.41 µM (inactive) | 1.98 µM (inactive) | – | –
O=C(Cc1ccccc1)N/N=C(/CCN1CCCC1)CC(c1ccccc1)c1c(O)c2ccccc2oc1=O (stereo unspecified) | > 100 µM (inactive) | 72.4 | > 100 µM (inactive) | – | > 100 µM (inactive) | – | > 100 µM (inactive) | 55.8 µM (inactive) | 22 µM (inactive) | 48.9 µM (inactive) | 21.4 µM (inactive) | 76.7 µM (inactive) | > 100 µM (inactive) | > 100 µM (inactive) | 26 µM (inactive) | – | > 100 µM (inactive) | 75.9 µM (inactive) | 39.7 µM (inactive) | > 100 µM (inactive)
O=C1c2cc(Cl)ccc2N=C(NCCCl)C2CSCN12 (stereo unspecified) | > 100 µM (inactive) | > 100 | > 100 µM (inactive) | > 100 µM (inactive) | > 100 µM (inactive) | > 100 µM (inactive) | > 100 µM (inactive) | > 100 µM (inactive) | > 100 µM (inactive) | 78.7 µM (inactive) | 52.8 µM (inactive) | 86.5 µM (inactive) | > 100 µM (inactive) | 70.1 µM (inactive) | > 100 µM (inactive) | > 100 µM (inactive) | > 100 µM (inactive) | > 100 µM (inactive) | > 100 µM (inactive) | –
CN(C)CC1CCC/C(=C\c2ccc(Cl)c(Cl)c2)C1=O (stereo unspecified) | 15.1 µM (inactive) | 2.41 | 7.23 µM (inactive) | – | 4.18 µM (inactive) | 3.42 µM (inactive) | 4.04 µM (inactive) | 3.05 µM (inactive) | 1.64 µM (inactive) | 0.843 µM (active) | 1.08 µM (active) | 2.99 µM (inactive) | 2.65 µM (inactive) | 1.93 µM (inactive) | 4.65 µM (inactive) | 9.04 µM (inactive) | 6.38 µM (inactive) | 8.45 µM (inactive) | 0.205 µM (active) | 5.2 µM (inactive)
Nc1ncnc2nc(N3CCN(CCO)CC3)[nH]c12 | > 100 µM (inactive) | > 100 | > 100 µM (inactive) | > 100 µM (inactive) | > 100 µM (inactive) | > 100 µM (inactive) | > 100 µM (inactive) | > 100 µM (inactive) | > 100 µM (inactive) | > 100 µM (inactive) | – | > 100 µM (inactive) | > 100 µM (inactive) | > 100 µM (inactive) | > 100 µM (inactive) | > 100 µM (inactive) | > 100 µM (inactive) | > 100 µM (inactive) | > 100 µM (inactive) | > 100 µM (inactive)
CN(C)c1ccc(/C=C(\NC(=O)c2ccccc2)C(=O)Nc2cccc(C(=O)NCCCO)c2)cc1 | > 100 µM (inactive) | > 100 | > 100 µM (inactive) | > 100 µM (inactive) | > 100 µM (inactive) | > 100 µM (inactive) | > 100 µM (inactive) | > 100 µM (inactive) | > 100 µM (inactive) | > 100 µM (inactive) | – | > 100 µM (inactive) | > 100 µM (inactive) | > 100 µM (inactive) | > 100 µM (inactive) | > 100 µM (inactive) | > 100 µM (inactive) | > 100 µM (inactive) | > 100 µM (inactive) | > 100 µM (inactive)
CCN(CC(COc1ccc2c(c1)[n+]([O-])nc(N)[n+]2[O-])OC(C)=O)C(C)=O (stereo unspecified) | 68.2 µM (inactive) | > 100 | > 100 µM (inactive) | – | > 100 µM (inactive) | > 100 µM (inactive) | 56 µM (inactive) | > 100 µM (inactive) | > 100 µM (inactive) | 48.2 µM (inactive) | > 100 µM (inactive) | 51.3 µM (inactive) | > 100 µM (inactive) | 14.1 µM (inactive) | > 100 µM (inactive) | 45.9 µM (inactive) | 90.4 µM (inactive) | > 100 µM (inactive) | > 100 µM (inactive) | > 100 µM (inactive)
Clc1ccc2nc3c(c(-c4ccccc4)nn3-c3ccccc3)c(-c3ccccc3)c2c1 | > 100 µM (inactive) | > 100 | > 100 µM (inactive) | – | > 100 µM (inactive) | > 100 µM (inactive) | > 100 µM (inactive) | > 100 µM (inactive) | > 100 µM (inactive) | > 100 µM (inactive) | > 100 µM (inactive) | > 100 µM (inactive) | > 100 µM (inactive) | > 100 µM (inactive) | > 100 µM (inactive) | > 100 µM (inactive) | > 100 µM (inactive) | > 100 µM (inactive) | > 100 µM (inactive) | –
Cc1cc2oc(=O)c(Cl)c(Cl)c2c(C)c1Cl | 15.7 µM (inactive) | 3.5 | 11.8 µM (inactive) | 2.84 µM (inactive) | 11.2 µM (inactive) | 11.5 µM (inactive) | 3.22 µM (inactive) | 5.5 µM (inactive) | 5.64 µM (inactive) | 2.83 µM (inactive) | – | 2.59 µM (inactive) | 3.19 µM (inactive) | 1.95 µM (inactive) | 11 µM (inactive) | 24.6 µM (inactive) | 4.25 µM (inactive) | 4.78 µM (inactive) | 2.35 µM (inactive) | 9.35 µM (inactive)
O=C(c1cc(Br)ccc1O)c1cc(Br)ccc1O | 17.5 µM (inactive) | 18.7 | 17.2 µM (inactive) | 14.7 µM (inactive) | 16.4 µM (inactive) | 16.7 µM (inactive) | 19.5 µM (inactive) | 18.8 µM (inactive) | 16.8 µM (inactive) | 22.5 µM (inactive) | – | 29.8 µM (inactive) | 15.5 µM (inactive) | 15.3 µM (inactive) | 17.2 µM (inactive) | 18.7 µM (inactive) | 15.8 µM (inactive) | 17.7 µM (inactive) | 11.3 µM (inactive) | 21.2 µM (inactive)
N[C@H](C(=O)O)[C@@H]1CC(Br)=NO1 | 3.66 µM (inactive) | 6.38 | 36.4 µM (inactive) | 11.9 µM (inactive) | 8.22 µM (inactive) | 38.3 µM (inactive) | 11.6 µM (inactive) | 39.7 µM (inactive) | 3.42 µM (inactive) | 14.1 µM (inactive) | 3.66 µM (inactive) | 8.95 µM (inactive) | 10.4 µM (inactive) | 20.6 µM (inactive) | > 100 µM (inactive) | 12.2 µM (inactive) | 19.7 µM (inactive) | 10.1 µM (inactive) | – | 5.21 µM (inactive)
